Positions of bridges follow the written chain, without caps; N, C: chain ends. Residues, ends and D or L forms follow the SMILES beside them.
Columns and labels:
C32 melanoma cells = assay: Cell toxicity assay (CellTiter-Glo), C32; type: cell-based, human; conditions: 0.6-50 µM CKP, 24 h and 72 h, at least three independent experiments
Protocol: reduction at the highest CKP concentration of 50 µM after 72 h (see results below). The absence of cell toxicity is likely due to the inability of the CKPs to penetrate cell membranes, which was experimentally determined in response to another reviewer. Due to space limitations we have not […]
Protocol of cell toxicity assay (Figure above):
HeLa cells or C32 melanoma cells were passaged in DMEM media supplemented with 10% FBS, 1% pen-strep and 1x Glutamax using standard culture conditions (5% CO2, 90% humidity at 37°C). At approximately 95% confluence cells were trypsinized, seeded onto 96-well plates (Corning) at 10,000 cells/well and grown for 24 h. Cells were then incubated with the CKPs 3B3, 1D3-ENI and 1G10-ENI (0, 0.6, 1.9, 5.6, 16.7 and 50 µM) at 37°C for 24 h or for 72h. As a positive control we used staurosporine (STS; 1µM). Cell viability was measured using the CellTiter-Glo luminescent cell viability assay (Promega) on an Envision Multilabel plate reader. Average of at least three independent experiments ± S.D. were plotted in Prism 10. Two-way ANOVA was performed on each dataset and compared to no drug samples and no significant viability reductions were observed, except for some treatments at the […]

HTRA1^PD(SA) = biological target: T1, HTRA1^PD(SA) (Homo sapiens, UniProt Q92743, S328A); assay: SPR binding kinetics to HTRA1^PD(SA); conditions: mean ± S.D. of three or more independent experiments
T1 construct: The protease domains of human HTRA1 (HTRA1^PD; D161-K379); made in house; host or cells: E. coli
T1 sequence (Q92743 161-379 S328A): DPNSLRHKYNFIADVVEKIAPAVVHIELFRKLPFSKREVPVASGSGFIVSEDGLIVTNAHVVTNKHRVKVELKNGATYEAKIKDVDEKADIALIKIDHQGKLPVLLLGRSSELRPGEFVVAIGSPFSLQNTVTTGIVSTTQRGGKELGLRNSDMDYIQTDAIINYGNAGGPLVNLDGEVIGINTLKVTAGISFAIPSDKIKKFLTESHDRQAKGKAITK
Protocol: Surface plasmon resonance (SPR) experiments were performed using a Biacore S200 instrument at 25 °C. His-tagged HTRA proteins were captured on a CM5 sensor chip using the His-capture kit (GE Healthcare). Protein concentrations used for immobilization were as follows; HTRA1^PD(SA), HTRA1^PD and HTRA1^PD-ABP 2 µg/ml with 60-s injections at 10 µl/min, HTRA2^PD/PDZ, HTRA3^PD/PDZ, and HTRA4^PD/PDZ 4 µg/ml with 60-s injections at 10 µl/min. Approximate immobilization levels of HTRA proteins were as follows; HTRA1^PD(SA) 700 RU, HTRA1^PD 900 RU, HTRA1^PD-ABP 900 RU, HTRA2^PD/PDZ 500 RU, HTRA3^PD/PDZ 500 RU, HTRA4^PD/PDZ 500 RU. All CKPs were prepared in HBS-EP buffer (0.01 M HEPES pH 7.4, 0.15 M NaCl, 3 mM EDTA, 0.005% v/v Surfactant P20). All CKP concentrations were injected for 120 s at a flow rate of 30 μl/min. A reference channel was subtracted from the HTRA-captured channel.
Binding kinetics of peptides to HTRA1^PD(SA) were determined by flowing six serial three-fold dilutions of peptide over the HTRA1^PD(SA) immobilized surface using a single cycle kinetics model. CKP maximum concentrations were as follows: 1A7, 1A8, 1C10, 2D5, and 3A7, 300 nM; 1G10-ENI and 1D3-ENI, 100 nM; 3B3, 3000 nM; and CPI, 10,000 nM. Data were analyzed using GE BIA evaluation software using a 1:1 Langmuir binding model. The KD values, calculated from the determined kon and koff values, were the mean ± S.D. of 3–4 independent experiments.

MDCK monolayer = assay: MDCK trans-well cell permeability assay; type: in vitro ADME, canine; conditions: MDCK trans-well, apical to basolateral, up to 50 µM, 16 h, mass spectrometry
Protocol: We carried out a cell permeability study using a MDCK trans-well assay, which is commonly
used at Genentech for permeability screening of compounds . This assay measures the flux of test
compound (Papp, apparent permeability) across a MDCK monolayer from the apical to the
basolateral compartment over a 16 h period.
sensitive mass spectrometry method .
10x10-6 cm/s and compounds with Papp values of <1x10-6 cm/s are considered to be of low
Protocol of permeability assay:
Experiments were carried out as described (Chen et al. Evaluating the utility of canine Mdr1 knockout
Madin-Darby canine kidney I cells in permeability screening and efflux substrate determination, Mol
Cells were seeded in 96-well Corning Transwell plates (PET membrane, 1 µm pore size) at 75,000 cells
per well and grown in DMEM media supplemented with 10% FBS, 1% pen-strep and 1x Glutamax at
37C, 5% CO2 for 48 h to ensure monolayer formation. Stock solutions of the three CKPs 1B3, 1D3-ENI
and 1G10-ENI were diluted in Hank's Balanced Salt solution containing 25 mM HEPES, pH 7.4 and 25
µM of the monolayer integrity marker lucifer yellow. CKPs at a concentration of 50 µM were added to
the apical (donor) chamber and the CKP the apparent permeability (Papp) was determined by quantifying
the amount of CKP in the basolateral (receiver) chamber after 16 h incubation at 37C, 5% CO2. The
samples from the basolateral chamber were supplemented with the experiment analytical internal standard
(100 nM propranolol in 50% ACN:50% water with 0.1% formic acid) and then injected in a Sciex Zeno
TOF 7600 mass spectrometer using TOF/MS mode.

HTRA2^PD/PDZ = biological target: T2, HTRA2^PD/PDZ (Homo sapiens, UniProt O43464); assay: Fluorescence-quenched casein-BODIPY assay, HTRA2; type: biochemical; conditions: 30 nM HTRA2^PD/PDZ, 2 µM CKP (0.5 mM 7mer-ABP)
T2 construct: Human HTRA2^PD/PDZ (A134-E458) was from R & D Systems; purchased R & D Systems 1458-HT-100
T2 sequence (O43464 134-458): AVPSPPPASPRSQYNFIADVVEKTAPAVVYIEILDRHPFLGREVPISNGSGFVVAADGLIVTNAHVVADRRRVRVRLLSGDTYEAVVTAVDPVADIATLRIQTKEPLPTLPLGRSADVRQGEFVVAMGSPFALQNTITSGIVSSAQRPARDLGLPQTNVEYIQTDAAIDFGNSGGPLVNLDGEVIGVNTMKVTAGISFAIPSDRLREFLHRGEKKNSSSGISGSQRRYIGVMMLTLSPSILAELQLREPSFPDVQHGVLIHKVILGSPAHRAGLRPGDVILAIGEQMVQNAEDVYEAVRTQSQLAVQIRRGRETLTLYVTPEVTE
Protocol: (§1) The fluorescence-quenched casein-BODIPY® assay (EnzCheck®, Thermo Fisher Scientific) was carried out in TNC buffer (50 mM Tris pH 8.0, 200 mM NaCl, 0.25% CHAPS) at 37 °C in 96-well black optical bottom plates (Nalge Nunc Int., Rochester, NY). Enzymes were incubated with CKPs or DMSO control for 15 min prior to addition of casein substrate. The reactant concentrations were: 30 nM HTRA1^FL, 30 nM HTRA1^PD/PDZ, 30 nM HTRA1^PD, 30 nM HTRA2^PD/PDZ, 30 nM HTRA3^FL, 100 nM HTRA3^PD/PDZ, 30 nM HTRA4^FL, 300 nM HTRA4^PD/PDZ, 2 µM CKP, 5 µg/ml casein substrate and 0.25% DMSO. For selectivity assays, 0.5 mM 7mer-ABP was used as positive control. The kinetics of substrate cleavage were measured at 37 °C on a SpectraMax M5 microplate reader (Molecular Devices) with excitation of 485 nm and emission of 530 nm for 30 min (HTRA1 and HTRA2) or 5 h (HTRA3 and HTRA4). The determined initial rates of cleavage were expressed as percent of control (DMSO control) after subtracting the baseline rates (without enzyme).

HTRA3^PD/PDZ, HTRA3^FL = biological target: T3, HTRA3^PD/PDZ, HTRA3^FL (Homo sapiens, UniProt P83110); assay: Fluorescence-quenched casein-BODIPY assay, HTRA3; type: biochemical; conditions: 2 µM CKP (0.5 mM 7mer-ABP)
T3 construct: purchased Abcam (FL form); the PD/PDZ form was made in house in E. coli ab134450
Protocol: as §1

[1] = SPR Biacore S200, 25 °C, single cycle kinetics, 1:1 Langmuir model

Row | Compound | Cell viability, C32 melanoma cells (C32 melanoma cells) | koff (HTRA1^PD(SA); [1]) [s-1 x10-4] | kon (HTRA1^PD(SA); [1]) | Kd (HTRA1^PD(SA); SPR, calculated from kon and koff, CPI up to 10 µM) [nM] | Cell permeability in the MDCK cell assay (MDCK monolayer) | Inhibition of HTRA2^PD/PDZ, casein-BODIPY cleavage (% of control) (HTRA2^PD/PDZ) | Inhibition of HTRA3^FL, casein-BODIPY cleavage (% of control) (HTRA3^PD/PDZ, HTRA3^FL; 30 nM HTRA3^FL) | Inhibition of HTRA3^PD/PDZ, casein-BODIPY cleavage (% of control) (HTRA3^PD/PDZ, HTRA3^FL; 100 nM HTRA3^PD/PDZ)
1 | CC[C@H](C)[C@H](NC(=O)[C@@H]1CCCN1C(=O)[C@H](CC(=O)O)NC(=O)[C@H](C)NC(=O)[C@@H](N)Cc1c[nH]cn1)C(=O)N[C@H]1CSSC[C@@H]2NC(=O)[C@H](Cc3ccccc3)NC(=O)[C@H](Cc3c[nH]c4ccccc34)NC(=O)[C@H](C)NC(=O)CNC(=O)[C@H](CO)NC(=O)[C@@H]3CSSC[C@@H](C(=O)NCC(=O)N4CCC[C@H]4C(=O)N[C@@H](Cc4ccc(O)cc4)C(=O)N[C@H](C(=O)NCC(N)=O)C(C)C)NC(=O)[C@H](CO)NC(=O)[C@H](Cc4c[nH]c5ccccc45)NC(=O)[C@H]([C@@H](C)O)NC(=O)[C@H](C)NC(=O)[C@H](Cc4ccc(O)cc4)NC(=O)[C@H](Cc4ccc(O)cc4)NC(=O)[C@H](CSSC[C@H](NC(=O)[C@@H]4CCCN4C(=O)[C@H](CCCCN)NC(=O)[C@H](CC(N)=O)NC1=O)C(=O)N[C@@H](CCCCN)C(=O)N[C@@H]([C@@H](C)O)C(=O)N[C@@H](Cc1c[nH]cn1)C(=O)N[C@@H](CC(=O)O)C(=O)N[C@@H](CC(=O)O)C(=O)N3)NC(=O)[C@H](C)NC(=O)[C@H](CCC(N)=O)NC2=O [3B3] (H-HADPICNKPCKTHDDCSGAWFCQACYYATWSCGPYVG-NH2; disulfide 6-22, 10-25, 16-32) | did not appreciably affect cell viability | 3.8 ± 0.5 | 1.1 ± 0.2 M-1 s-1 x104 | 34 | no detectable cell permeability |  |  | 
2 | DPMFKLV-phosphonate [7mer-ABP] |  |  |  |  |  | significantly inhibited | significantly inhibited | significantly inhibited
